# Experimental data taken from patent publication US9302999B2, “Substituted triazoles as herbicides” (E. I. DU PONT DE NEMOURS AND COMPANY, priority 2012, dated 2016).
# How the values were obtained:
# Assay type in all cases: in vivo
# [1] = tested on: pigweed (Amaranthus retroflexus); assay: Test C pre-/postemergence: pigweed; conditions: Postemergence
# Method in brief: (§1)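 Visual injury scored 0–100 (100 = complete control) against untreated controls after 13–15 greenhouse days. Surfactant-containing solvent formulations applied either to soil after sowing (loam/sand) or over 1- to 4-leaf plants, 2–18 cm tall.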
# [2] = tested on: velvetleaf (Abutilon theophrasti); assay: Test C pre-/postemergence: velvetleaf; conditions: Postemergence
# Method in brief: as §1
# [3] = tested on: ragweed (common ragweed, Ambrosia elation); assay: Test C pre-/postemergence: ragweed; conditions: Postemergence
# Method in brief: as §1
# [4] = tested on: foxtail, giant (giant foxtail, Setaria faberii); assay: Test C pre-/postemergence: foxtail, giant; conditions: Postemergence
# Method in brief: as §1
# kochia (Kochia scoparia) = assay: Test C pre-/postemergence: kochia; conditions: Postemergence
# Method in brief: as §1
# [5] = tested on: foxtail, giant (giant foxtail, Setaria faberii); assay: Test A pre-/postemergence: foxtail, giant; conditions: 1000 g ai/ha
# Method in brief: (§2)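 Whole-plant greenhouse assay in loam/sand. Preemergence directed soil spray plus simultaneous postemergence spray (one- to two-leaf stage, 2–10 cm). Rated visually ~10 days later, 0 = no effect, 100 = complete control.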
# [6] = tested on: large crabgrass (Digitaria sanguinalis); assay: Test C pre-/postemergence: large crabgrass; conditions: Postemergence
# Method in brief: as §1
# soybean (Glycine max) = assay: Test C pre-/postemergence: soybean; conditions: Postemergence
# Method in brief: as §1
# [7] = tested on: winter wheat (Triticum aestivum); assay: Test C pre-/postemergence: winter wheat; conditions: Postemergence
# Method in brief: as §1
# corn (Zea mays) = assay: Test A pre-/postemergence: corn; conditions: 1000 g ai/ha
# Method in brief: as §2
# [8] = tested on: crabgrass, large (large crabgrass, Digitaria sanguinalis); assay: Test A pre-/postemergence: crabgrass, large; conditions: 1000 g ai/ha
# Method in brief: as §2
# wild oat (Avena fatua) = assay: Test C pre-/postemergence: wild oat; conditions: Postemergence
# Method in brief: as §1
# [9] = 16 g ai/ha, scale 0 to 100, 0 no effect, 100 complete control
# [10] = 31 g ai/ha, scale 0 to 100 (0 no effect, 100 complete control)
# [11] = 62 g ai/ha, scale 0 to 100 (0 no effect, 100 complete control)
# [12] = 125 g ai/ha, scale 0 to 100, 0 no effect, 100 complete control
# [13] = Postemergence, visual rating on 0 to 100 scale (0 no effect, 100 complete control), approximately ten days
# [14] = Preemergence, 0 to 100 scale, 0 is no effect, 100 is complete control
smiles,measurement,setting,value
Cc1nn(-c2ccc(C(F)(F)F)cc2)nc1Cc1cccc(C(F)(F)F)c1 [Compound 124],"Plant response rating, Pigweed",[1]; [9],75
same,"Plant response rating, Pigweed",[1]; [10],90
same,"Plant response rating, Pigweed",[1]; [11],95
same,"Plant response rating, Pigweed",[1]; [12],98
same,"Plant response rating, Velvetleaf",[2]; [9],45
same,"Plant response rating, Velvetleaf",[2]; [10],45
same,"Plant response rating, Velvetleaf",[2]; [11],50
same,"Plant response rating, Velvetleaf",[2]; [12],55
same,"Plant response rating, Ragweed",[3]; [9],45
same,"Plant response rating, Ragweed",[3]; [10],50
same,"Plant response rating, Ragweed",[3]; [11],65
same,"Plant response rating, Ragweed",[3]; [12],65
same,"Plant response rating, Foxtail, Giant",[4]; [9],15
same,"Plant response rating, Foxtail, Giant",[4]; [10],15
same,"Plant response rating, Foxtail, Giant",[4]; [11],25
same,"Plant response rating, Foxtail, Giant",[4]; [12],45
same,"Plant response rating, Kochia",kochia (Kochia scoparia); [9],75
same,"Plant response rating, Kochia",kochia (Kochia scoparia); [10],80
same,"Plant response rating, Kochia",kochia (Kochia scoparia); [11],80
same,"Plant response rating, Kochia",kochia (Kochia scoparia); [12],85
same,"Foxtail, Giant plant response rating",[5]; [13],90
same,"Foxtail, Giant plant response rating",[5]; [14],100
same,"Plant response rating, Crabgrass, Large",[6]; [9],20
same,"Plant response rating, Crabgrass, Large",[6]; [10],30
same,"Plant response rating, Crabgrass, Large",[6]; [11],40
same,"Plant response rating, Crabgrass, Large",[6]; [12],45
same,"Plant response rating, Soybean",soybean (Glycine max); [9],45
same,"Plant response rating, Soybean",soybean (Glycine max); [10],55
same,"Plant response rating, Soybean",soybean (Glycine max); [11],55
same,"Plant response rating, Soybean",soybean (Glycine max); [12],60
same,"Plant response rating, Wheat",[7]; [9],5
same,"Plant response rating, Wheat",[7]; [10],10
same,"Plant response rating, Wheat",[7]; [11],15
same,"Plant response rating, Wheat",[7]; [12],20
same,Corn plant response rating,corn (Zea mays); [13],60
same,Corn plant response rating,corn (Zea mays); [14],10
same,"Crabgrass, Large plant response rating",[8]; [13],90
same,"Crabgrass, Large plant response rating",[8]; [14],100
same,"Plant response rating, Oat, Wild",wild oat (Avena fatua); [9],20
same,"Plant response rating, Oat, Wild",wild oat (Avena fatua); [10],20
same,"Plant response rating, Oat, Wild",wild oat (Avena fatua); [11],25
same,"Plant response rating, Oat, Wild",wild oat (Avena fatua); [12],35
